Reference: US7811352B2, “Fertilizer compositions and methods of using” (priority 2005, dated 2010)

Tests used:
[1] = system: total soil bacteria and fungi; experiment: Soil microbial population (plate count) after fertilizer application to Kentucky bluegrass turf (Example 8); details: 1.0 lb N/1000 ft^2; 24, 48 and 72 hours after application
Method: In this Example, the effect on various embodiments of the fertilizer composition on soil microbial population (bacterial and fungal) was examined. The Example compared the effect on total microbial populations 24, 48 and 72 hours after application of the fertilizer to a Kentucky bluegrass turf.
The following fertilizer compositions were used: urea, dry lysine (lysine (HCl), LIQUID LYSINE brand aqueous lysine solution (available from Archer-Daniels-Midland Company, Decatur, Ill.), a threonine cell mass, a lysine cell mass, and soy/lysine combination (a granular mixture of dry lysine and soy flour, soy flakes and soybean oil. Analysis of the threonine cell mass is presented in Table 5. The effect of the fertilizer compositions on microbial population were compared with a control plot to which no fertilizer composition was applied. The dry lysine was dissolved in water and applied by spraying on the turf plot. The fertilizer compositions were applied at a rate of 1.0 lb N/1000 ft^2 of Kentucky bluegrass turf Soil samples from the turf were analyzed for total soil bacteria and fungi by standard plate count and dilution series.

[2] = system: ultra-dwarf Bermuda grass; experiment: Phytotoxicity rating, ultra-dwarf Bermuda grass greens (Example 11); assay type: in vivo; details: scale 0-5, 5=worst
From the text: In this Example, the effect of a fertilizer comprising lysine on warm season turfgrass growth was examined. The effects of lysine (HCl) and LIQUID LYSINE on a common type of golf course greens quality turfgrass (ultra-dwarf Bermuda grass) were compared with those of urea and Milorganite.
Twelve fertilizer treatments comprising three concentrations of each fertilizer composition (Milorganite (N—P—K, 6-2-0), urea (N—P—K, 46-0-0), LIQUID LYSINE (N—P—K, 10-2-1), and lysine (HCl) (N—P—K, 15-2-1)) were prepared and applied to 3 replications of ultra-dwarf Bermuda grass. The lysine (HCl) was dissolved in water prior to application. Each fertilizer treatment was applied in concentrations of 0.125 lb N/1000 ft^2/week, 0.25 lb N/1000 ft^2/week and 0.75 lb N/1000 ft^2/week. The urea, LIQUID LYSINE and lysine (HCl) were applied as foliar liquids, while Milorganite was applied as a granular fertilizer. Plot size was 1 m×1 m set up as a randomized complete block. Plots were mowed at 0.125 inches before fertilizer application. Irrigation (0.15 inch) was applied following application. Plots were rated for turfgrass quality and color (scale of 1-10 where 10=dark green turf, 1=dead/brown turf, and 6=initially acceptable turf) and phytotoxicity (scale of 0-5, where 5=worst, and 2=minimally objectionable) throughout the study period. Quality, color, and phytotoxicity were measured on 2 days before application (day −2) and day 2, day 5, day 15 and day 21 after application. All data was subject to statistical analysis and significant means were determined. Average turfgrass quality ratings for the treatments are presented in Table 12 and the quality results for application rates of 0.25 lb N/1000 ft^2/week are graphically presented in FIG. 6.

[3] = system: Pennlinks creeping bentgrass maintained as a golf fairway; experiment: Phytotoxic injury rating, fairway creeping bentgrass (Example 15); assay type: in vivo
From the text: In this Example, the effect of a fertilizer comprising lysine on cool season fairway turfgrass growth was examined. The effects of lysine (HCl) and LIQUID LYSINE on a common type of golf course fairway variety turfgrass (Pennlinks creeping bentgrass maintained as a golf fairway) were compared with those of urea, Milorganite and a blended fertilizer (a blend of methylene urea and urea in an approximately 1:1 ratio).
Fifteen fertilizer treatments comprising three concentrations of each fertilizer composition (Milorganite (N—P—K, 6-2-0), urea (N—P—K, 46-0-0), a blended fertilizer, LIQUID LYSINE (N—P—K, 10-2-1), and lysine (HCl) (N—P—K, 15-2-1)) were prepared and applied to 3 replications of a well established Pennlinks creeping bentgrass maintained as a golf fairway grass. The urea, lysine (HCl), and LIQUID LYSINE were dissolved/suspended in 1.5 gal water prior to application. […] The urea, LIQUID LYSINE and lysine (HCl) were applied as foliar liquids, while Milorganite and the blended fertilizer were applied as granular fertilizers. Plot size was 4 ft×8 ft laid out in a replicated complete block design. Plots were mowed at 0.5 inches before fertilizer application and mowed three times per week to 0.5 inch height. Grass clippings were not removed from the plots and no supplemental cultural maintenance was applied. Irrigation (0.15 inch) was applied following application and every other day thereafter. Plots were rated for turfgrass quality (scale of 1-9 where 9=dark green turf, 1=dead/brown turf, and 6=minimally acceptable turf and phytotoxic injury (scale of 0-9 where 9=significant foliar injury and 2=minimally objectional foliar injury) throughout the study period. Quality was measured prior to application (day 0) and day 37, day 70 and day 95 after application. Injury was measured on day 37, day 70 and day 95 after application. All data was subject to statistical analysis and significant means were determined. Average turfgrass quality ratings for the treatments are presented in Table 24.

[4] = Weekly Rate 0.125 lbs N/1000 ft^2, Day 2
[5] = Weekly Rate 0.125 lbs N/1000 ft^2, Day 5
[6] = Weekly Rate 0.125 lbs N/1000 ft^2, Day 15
[7] = Weekly Rate 0.125 lbs N/1000 ft^2, Day 21
[8] = Weekly Rate 0.125 lbs N/1000 ft^2, Day −2 (before application)
[9] = Weekly Rate 0.25 lbs N/1000 ft^2, Day 2
[10] = Weekly Rate 0.25 lbs N/1000 ft^2, Day 5
[11] = Weekly Rate 0.25 lbs N/1000 ft^2, Day 15
[12] = Weekly Rate 0.25 lbs N/1000 ft^2, Day 21
[13] = Weekly Rate 0.25 lbs N/1000 ft^2, Day −2 (before application)
[14] = Weekly Rate 0.75 lbs N/1000 ft^2, Day 2
[15] = Weekly Rate 0.75 lbs N/1000 ft^2, Day 5
[16] = Weekly Rate 0.75 lbs N/1000 ft^2, Day 15
[17] = Weekly Rate 0.75 lbs N/1000 ft^2, Day 21
[18] = Weekly Rate 0.75 lbs N/1000 ft^2, Day −2 (before application)
[19] = Weekly Rate 0.5 lbs N/1000 ft^2, Day 37
[20] = Weekly Rate 0.5 lbs N/1000 ft^2, Day 70
[21] = Weekly Rate 0.5 lbs N/1000 ft^2, Day 95
[22] = Weekly Rate 1.0 lbs N/1000 ft^2, Day 37
[23] = Weekly Rate 1.0 lbs N/1000 ft^2, Day 70
[24] = Weekly Rate 1.0 lbs N/1000 ft^2, Day 95
[25] = Weekly Rate 3.0 lbs N/1000 ft^2, Day 37
[26] = Weekly Rate 3.0 lbs N/1000 ft^2, Day 70
[27] = Weekly Rate 3.0 lbs N/1000 ft^2, Day 95

Compound: Cl.NCCCC[C@H](N)C(=O)O [Lys (HCl) 15% N, L-lysine monohydrochloride]
- soil microbial populations compared with controls [1]: did not significantly differ
- Phytotoxicity - Dwarf Bermuda Grass [2, 4]: 0
- Phytotoxicity - Dwarf Bermuda Grass [2, 5]: 0
- Phytotoxicity - Dwarf Bermuda Grass [2, 6]: 0
- Phytotoxicity - Dwarf Bermuda Grass [2, 7]: 0
- Phytotoxicity - Dwarf Bermuda Grass [2, 8]: 0
- Phytotoxicity - Dwarf Bermuda Grass [2, 9]: 0
- Phytotoxicity - Dwarf Bermuda Grass [2, 10]: 0
- Phytotoxicity - Dwarf Bermuda Grass [2, 11]: 0
- Phytotoxicity - Dwarf Bermuda Grass [2, 12]: 0
- Phytotoxicity - Dwarf Bermuda Grass [2, 13]: 0
- Phytotoxicity - Dwarf Bermuda Grass [2, 14]: 0
- Phytotoxicity - Dwarf Bermuda Grass [2, 15]: 0
- Phytotoxicity - Dwarf Bermuda Grass [2, 16]: 0
- Phytotoxicity - Dwarf Bermuda Grass [2, 17]: 0
- Phytotoxicity - Dwarf Bermuda Grass [2, 18]: 0
- Injury Rating - Fairway Bentgrass [3, 19]: 1.3ab
- Injury Rating - Fairway Bentgrass [3, 20]: 5.7
- Injury Rating - Fairway Bentgrass [3, 21]: 2.0bc
- Injury Rating - Fairway Bentgrass [3, 22]: 1.0b
- Injury Rating - Fairway Bentgrass [3, 23]: 5.0
- Injury Rating - Fairway Bentgrass [3, 24]: 3.0abc
- Injury Rating - Fairway Bentgrass [3, 25]: 2.0a
- Injury Rating - Fairway Bentgrass [3, 26]: 4.7
- Injury Rating - Fairway Bentgrass [3, 27]: 2.0bc

Compound: NC(N)=O [Urea, urea, reference compound]
- soil microbial populations compared with controls [1]: did not significantly differ
- Phytotoxicity - Dwarf Bermuda Grass [2, 4]: 0
- Phytotoxicity - Dwarf Bermuda Grass [2, 5]: 0
- Phytotoxicity - Dwarf Bermuda Grass [2, 6]: 0
- Phytotoxicity - Dwarf Bermuda Grass [2, 7]: 0
- Phytotoxicity - Dwarf Bermuda Grass [2, 8]: 0
- Phytotoxicity - Dwarf Bermuda Grass [2, 9]: 0
- Phytotoxicity - Dwarf Bermuda Grass [2, 10]: 0
- Phytotoxicity - Dwarf Bermuda Grass [2, 11]: 0
- Phytotoxicity - Dwarf Bermuda Grass [2, 12]: 0
- Phytotoxicity - Dwarf Bermuda Grass [2, 13]: 0
- Phytotoxicity - Dwarf Bermuda Grass [2, 14]: 0
- Phytotoxicity - Dwarf Bermuda Grass [2, 15]: 0
- Phytotoxicity - Dwarf Bermuda Grass [2, 16]: 0
- Phytotoxicity - Dwarf Bermuda Grass [2, 17]: 0
- Phytotoxicity - Dwarf Bermuda Grass [2, 18]: 0
- Injury Rating - Fairway Bentgrass [3, 19]: 1.3ab
- Injury Rating - Fairway Bentgrass [3, 20]: 6.3
- Injury Rating - Fairway Bentgrass [3, 21]: 2.0bc
- Injury Rating - Fairway Bentgrass [3, 22]: 1.3ab
- Injury Rating - Fairway Bentgrass [3, 23]: 6.0
- Injury Rating - Fairway Bentgrass [3, 24]: 1.3c
- Injury Rating - Fairway Bentgrass [3, 25]: 1.0b
- Injury Rating - Fairway Bentgrass [3, 26]: 5.7
- Injury Rating - Fairway Bentgrass [3, 27]: 4.3a
